Assay results published in ChEMBL document CHEMBL4732086, “Targeting nuclear protein TDP-43 by cell division cycle kinase 7 inhibitors: A new therapeutic approach for amyotrophic lateral sclerosis” (Eur J Med Chem, 2021).
Activity calls are given as the source filed them. No cut-off for these calls is given here.

Columns and labels:
[1] = target: T1, Dual specificity tyrosine-phosphorylation-regulated kinase 3 (Homo sapiens) (UniProt O43781); assay: Inhibition of recombinant human full length GST-tagged DYRK3 expressed in baculovirus expression system using serine/threonine-18 peptide as substrate at 10 uM incubated for 60 mins in presence of ATP by Z'-LYTE assay
T1 sequence (whole entry): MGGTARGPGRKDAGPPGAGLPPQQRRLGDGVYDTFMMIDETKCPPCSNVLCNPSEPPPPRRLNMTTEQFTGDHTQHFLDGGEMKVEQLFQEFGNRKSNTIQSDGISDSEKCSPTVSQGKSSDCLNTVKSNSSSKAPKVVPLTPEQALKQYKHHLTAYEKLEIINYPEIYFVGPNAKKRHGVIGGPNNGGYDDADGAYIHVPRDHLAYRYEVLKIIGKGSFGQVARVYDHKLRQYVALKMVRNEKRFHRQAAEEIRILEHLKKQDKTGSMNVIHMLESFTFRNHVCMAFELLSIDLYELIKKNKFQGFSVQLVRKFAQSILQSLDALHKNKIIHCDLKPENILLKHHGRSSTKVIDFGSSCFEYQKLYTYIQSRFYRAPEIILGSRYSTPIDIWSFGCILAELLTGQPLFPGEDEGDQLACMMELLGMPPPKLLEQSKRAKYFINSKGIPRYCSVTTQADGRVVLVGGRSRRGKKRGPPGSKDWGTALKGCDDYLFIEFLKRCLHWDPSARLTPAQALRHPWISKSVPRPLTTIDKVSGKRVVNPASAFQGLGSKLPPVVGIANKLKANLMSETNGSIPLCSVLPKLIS

Caenorhabditis elegans [2] = assay: Inhibition of CDC7 in transgenic Caenorhabditis elegans CK423 Bus-8(e2698) expressing human TDP-43 assessed as inhibition of TDP-43 phosphorylation at 75 uM measured after 6 days by Western blot assay; conditions: time 6.0 day
SH-SY5Y = assay: Neuroprotective activity in human SH-SY5Y cells assessed as decrease in cytoplasmic TDP-43 preincubated for 1 hr followed by incubation with ethacrynic acid for 24 hrs measured at 10 uM by immunofluorescence assay; assay type: functional, cell-based
Caenorhabditis elegans [3] = assay: Inhibition of CDC7 in transgenic Caenorhabditis elegans CK423 Bus-8(e2698) expressing human TDP-43 assessed as inhibition of TDP-43 phosphorylation at 10 to 75 uM measured after 6 days by Western blot assay; conditions: dose 10-75 µM, time 6.0 day
Mus musculus [4] = assay: Neuroprotective activity in Prp-hTDP43 (A315T) transgenic amyotrophic lateral sclerosis mouse model assessed as decrease in clasping behavioural at 5 mg/kg, ip qd measured on week 5 by rotarod test; assay type: functional, organism-based; conditions: time 5.0 weeks
Mus musculus [5] = assay: Neuroprotective activity in Prp-hTDP43 (A315T) transgenic amyotrophic lateral sclerosis mouse model assessed as decrease in clasping behavioural at 5 mg/kg, ip qd measured on week 3 by rotarod test; assay type: functional, organism-based; conditions: time 3.0 weeks
Mus musculus [6] = assay: Neuroprotective activity in Prp-hTDP43 (A315T) mouse assessed by decrease in TDP-43 phosphorylation in spinal cord tissue at 5 mg/kg, ip qd for 30 days by Western blot assay; assay type: functional, organism-based; conditions: time 30.0 day
[7] = Toxicity in Prp-hTDP43 (A315T) mouse at 5 mg/kg, ip qd for 30 days; assay type: organism-based; conditions: in vivo, 720 h, time 30 day

Row | SMILES | inhibition [1] | inhibition (Caenorhabditis elegans [2]) | Activity (SH-SY5Y) | inhibition (Caenorhabditis elegans [3]) | Activity (Mus musculus [4]) | Activity (Mus musculus [5]) | Activity (Mus musculus [6]) | Activity [7]
1 | c1ccc(CSc2ncnc3[nH]cnc23)cc1 | inactive | Active |  |  |  |  |  | 
2 | Clc1cccc(CSc2ncnc3[nH]cnc23)c1 | inactive |  | Active | inactive |  |  |  | 
3 | Brc1ccccc1CSc1ncnc2[nH]cnc12 | inactive |  |  | inactive | Active | Active | Active | Non-Toxic
